Where a SMILES comes first, the peptide text is derived from it. [ ]: non-standard residue; d: D form. N(1S-Me-propyl)Gly = CC[C@H](C)NCC(=O)O; Nspe = C[C@H](NCC(=O)O)c1ccccc1; Nphe = O=C(O)CNCc1ccccc1; NPrGly = CCCNCC(=O)O; Nlys = NCCCCNCC(=O)O
How the values were obtained:
Aβ40 [1] = biological target: T1, Aβ40 (Homo sapiens, UniProt P05067); assay: Nile Red spectroscopy, surface hydrophobicity of Aβ40 aggregates; settings: 100 μM peptoid, 20 μM Aβ40, equilibrium plateau; n=3-4
T1 construct: purchased Anaspec, Inc
T1 sequence (P05067 672-711 limits assumed): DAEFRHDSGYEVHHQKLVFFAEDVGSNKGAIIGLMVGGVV
Method: (§1) Aggregation assays were performed with 20 μM rehydrated Aβ40 in 40 mM Tris-HCl (pH 8.0) and 150 mM NaCl. Peptoids were dissolved in DMSO and added at 100 μM such that the final DMSO concentration was 5% (v/v). Assays were performed at 25° C. with agitation on an orbital shaker at 800 rpm.
To monitor peptoid-induced changes in aggregate surface hydrophobicity, which are indicative of changes in aggregate conformation, an aliquot of the aggregation reaction was taken from the equilibrium plateau and combined with 200 μM Nile Red (Life Technologies, Carlsbad, Calif.) at a 10:1 molar ratio (Nile Red:Aβ). Samples were scanned using a PerkinElmer LS 45 Luminescence Spectrometer (excitation at 550 nm and emission from 580-700 nm), and the integrated area under the curve (IAUC) was calculated from 580-700 nm. The IAUC was blank (Nile Red, peptoid) subtracted and normalized to Nile Red measurements performed for the control reaction.

Aβ40 [2] = biological target: T1, Aβ40; assay: Aβ40 aggregation assay monitored via ThT fluorescence; type: biochemical; settings: 100 μM peptoid, 20 μM Aβ40 monomer; mean±SEM, n=7
Method: (§2) Aβ40 was dissolved in cold 1,1,1,3,3-hexafluoro-2-propanol (HFIP) to create a 1 mM solution and was incubated on ice for 60 min. After incubation, the solution was aliquoted into individual silicon-coated vials, and HFIP was allowed to evaporate overnight at room temperature, resulting in a thin protein film that was stored with desiccant at −80° C. until use. Prior to experimentation, protein films were rehydrated with 5 mM NaOH on ice for 5 min, and then 40 mM Tris-HCl (pH 8.0) was added for 10 min on ice for a final concentration of 250 μM NaOH.
as §1
To monitor aggregation using ThT, an aliquot of the aggregation reaction was taken at varying time points and combined with 12.5 μM ThT at a 5:1 molar ratio (ThT:Aβ). Samples were mixed for 8 s and then scanned with a Shimazdu RF-150 mini fluorometer (excitation at 440±10 nm and emission at 490±10 nm) using an average scan time of 4 s. ThT fluorescence with background (ThT alone) subtraction was normalized to the fluorescence detected at equilibrium within the control reaction, and results were plotted against time. […] The fold-change in the lag time was calculated as the ratio of the lag time observed in the presence of peptoid to that of the control. The equilibrium plateau was determined for both the control and peptoid reactions, and percent inhibition was calculated as the percentage decrease of the equilibrium plateau observed in the presence of peptoid relative to the control.

Aβ40 [3] = biological target: T1, Aβ40; settings: cited from earlier work
Aβ40 [4] = biological target: T1, Aβ40; settings: different Aβ lot; cited from earlier work
Aβ40 [5] = biological target: T1, Aβ40; assay: Transmission electron microscopy of Aβ40 aggregates; settings: 100 μM peptoid, 20 μM Aβ40, 255 min; for overall number of Aβ40 aggregates (TEM): versus control
Method: Aggregation assays were performed with 20 μM rehydrated Aβ40 in 40 mM Tris-HCl (pH 8.0) and 150 mM NaCl. Peptoids were dissolved in DMSO and added at 100 μM such that the final DMSO concentration was 5% (v/v). Assays were performed at 25° C. with agitation on an orbital shaker at 800 rpm. Monomer aggregation reactions were gridded for transmission electron microscopy (TEM) at 255 min, a time by which the control reaction had reached plateau as observed by ThT fluorescence. A 3 μL sample was placed onto a wax substrate, and a 300 square mesh formvar-carbon supported nickel grid (Electron Microscopy Sciences, Hatfield, Pa.) was inverted onto the sample. After 1 min, the sample was wicked away from the bottom side of the grid using a piece of filter paper. A 3 μL sample of 2% uranyl acetate was then placed onto the wax substrate, and the grid was inverted onto the solution for a period of 45 s. Excess stain was wicked away with a piece of filter paper, and the grids were allowed to dry for a period of 24 h. Imaging was performed using a JEOL-1011 transmission electron microscope (JEOL Ltd., Tokyo, Japan) with an accelerating voltage of 110 kV. Blinded observation of samples with random selection of grid areas was implemented to reduce bias during imaging. Images are the representative of 3 repeated experiments and 3 random sections of the grids.

Aβ40 [6] = biological target: T1, Aβ40; assay: Aβ40 aggregation assay assessed by dot blot analysis with fibril specific OC antibody; type: biochemical; settings: 100 μM peptoid, 20 μM Aβ40 monomer; for lag time extension (dot blot, OC antibody), FIG. 3 legend: mean±SEM, n=3
Method: as §2, §1
In parallel with ThT fluorescence, aggregation assays were also assessed by dot blot analysis. […] Membranes were washed three times with TBS-T and incubated with Aβ fibril specific OC antibody (1:5000 dilution) for 1 h at room temperature with gentle agitation. Membranes were again washed three times with TBS-T. Protein detection for bound OC antibody was performed by binding alkaline phosphatase-conjugated anti-rabbit IgG (1:3000 dilution) for 1 h at room temperature with gentle agitation. Dot blots were developed using nitro blue tetrazolium and 5-bromo-4-chloro-3-indolyl phosphate in TBS-T/MgCl2 until […]. The developing reaction was halted using a 10% acetic acid solution. Dot blots were immediately imaged using a Canon CanoScan 9000F (Tokyo, Japan). Images were analyzed with ImageJ software using the gel lane analysis tool. Dot density was normalized to the density detected at equilibrium for the control and plotted against time. The fold-change in lag time and percent inhibition were assessed as described for ThT fluorescence.

Structure (SMILES)	surface hydrophobicity of Aβ40 aggregates (Nile Red fluorescence IAUC 580-700 nm normalized to control) (Aβ40 [1])	Inhibition of Aβ40 aggregation (reduction in the ThT fluorescence plateau at equilibrium) (Aβ40 [2]) [%]	Inhibition of Aβ40 aggregation (ThT), previously reported value (Aβ40 [3]) [%]	decrease in fibrillar aggregates (dot blot), previously published data (Aβ40 [4]) [%]	fold change in lag time compared to the control (dot blot), previously published data (Aβ40 [4]) [fold]	morphology of Aβ40 aggregates formed in the presence of peptoid (TEM) (Aβ40 [5])	overall number of Aβ40 aggregates (TEM) (Aβ40 [5])	decrease in fibrillar aggregates at equilibrium (dot blot, OC antibody) (Aβ40 [6]) [%]	fold change in lag time versus the control (dot blot, OC antibody) (Aβ40 [6]) [fold]	lag time extension (dot blot, OC antibody), FIG. 3 legend (Aβ40 [6])
CC[C@H](C)N(CC(=O)N(CC(=O)N(CC(=O)N(CC(=O)N(CC(=O)N(CC(=O)N(CC(N)=O)[C@@H](C)c1ccccc1)[C@@H](C)c1ccccc1)[C@@H](C)CC)[C@@H](C)c1ccccc1)[C@@H](C)c1ccccc1)[C@@H](C)CC)C(=O)CNCCCCN [JPT1] (H-[Nlys][N(1S-Me-propyl)Gly][N(1S-Me-propyl)Gly][Nspe][Nspe][N(1S-Me-propyl)Gly][Nspe][Nspe]-NH2)	no significant change in Nile Red fluorescence	83.1±4.8	81.2±4.4	63.7±9.2	< 0.31	small aggregates with no extensive branching	reduction in the overall number of aggregates	46.0±11.4	2.7±0.8	2.67±0.83 times that of the control
CCCN(CC(=O)N(CCC)CC(=O)N(CC(=O)N(CC(=O)N(CCC)CC(=O)N(CC(=O)N(CC(N)=O)Cc1ccccc1)Cc1ccccc1)Cc1ccccc1)Cc1ccccc1)C(=O)CNCCCCN [JPT1a] (H-[Nlys][NPrGly][NPrGly][Nphe][Nphe][NPrGly][Nphe][Nphe]-NH2)	significantly increased surface hydrophobicity	85.6±4.8	–	–	–	circular, bird nest-like morphology	reduction in the overall number of aggregates	72.6±4.5	< 0.50	< 0.42 times that of the control
CC[C@H](C)NCC(=O)N(CC(=O)N(CC(=O)N(CC(=O)N(CC(=O)N(CCCCN)CC(=O)N(CC(=O)N(CC(N)=O)[C@@H](C)c1ccccc1)[C@@H](C)CC)[C@@H](C)CC)[C@@H](C)c1ccccc1)[C@@H](C)c1ccccc1)[C@@H](C)c1ccccc1 [JPT1s] (H-[N(1S-Me-propyl)Gly][Nspe][Nspe][Nspe][N(1S-Me-propyl)Gly][Nlys][N(1S-Me-propyl)Gly][Nspe]-NH2)	no significant change in Nile Red fluorescence	76.9±4.8	–	–	–	–	reduction in the overall number of aggregates	50.5±9.0	2.2±0.4	2.22±0.28 times that of the control

— patent US10167315B2, “Peptoids and methods for treating Alzheimer's disease” (THE BOARD OF TRUSTEES OF THE UNIVERSITY OF ARKANSAS, priority 2015, dated 2019)
